Some test systems named below: COLO 205; DU-145; EKVX; HCC 2998; HOP-62; KM12; MDA-MB-231; NCI-H23; NCI-H460; NCI-H522; OVCAR-4; RPMI-8226; SF-268; SK-MEL-2; SK-MEL-5; SN12C; SW-620; T47D; TK-10; UACC-62.
Holding throughout (experiment): DTP human tumour cell line panel, 48 h

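A five-concentration, 48-hour dose response in 96-well plates underlies each endpoint, interpolated linearly between surrounding concentrations. At the GI50, growth is halved.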 Active and inactive are the calls of the source. No stated cut-off is given here; in the data, active = GI50 up to about 1.1 µM and inactive = higher.

The GI50 is the concentration that inhibits growth by half.

As for `C=C(CN(C)C)C(=O)c1ccc(OC2OC(COC(C)=O)C(OC(C)=O)C(OC(C)=O)C2OC(C)=O)cc1` (stereo not given), the GI50 in the assay on COLO 205 was 0.753 µM (active); in the assay on DU-145, 17.5 µM (inactive); in the assay on EKVX, 11.8 µM (inactive); in the assay on HCC 2998, 18.1 µM (inactive); in the assay with HOP-62, 15.3 µM (inactive); in the assay on KM12 it was 17.6 µM (inactive). Also, the GI50 with MDA-MB-231 is 5 µM (inactive); in the assay on NCI-H23 it was 8.89 µM (inactive); with NCI-H460, 20.1 µM (inactive); in the assay on NCI-H522 it was 0.447 µM (active); in the assay with OVCAR-4, 3.75 µM (inactive); in the assay on RPMI-8226 it was 2.88 µM (inactive). The GI50 in the assay on SF-268 is 19.7 µM (inactive); in the assay with SK-MEL-2, 10.3 µM (inactive); with SK-MEL-5 it was 6.37 µM (inactive); in the assay with SN12C, 9.98 µM (inactive); with SW-620, 0.678 µM (active); in the assay with T47D it was 2.9 µM (inactive). Besides, the figures for the GI50 in the assay on TK-10 and in the assay with UACC-62 were 3.39 µM (inactive) and 4.7 µM (inactive), respectively.

Consider `CC(C)(C)OC(=O)NC(Cc1c[nH]cn1)C(=O)N1CCCC1C(N)=O` (stereo not given), for which the GI50 with COLO 205, with DU-145, in the assay on EKVX, in the assay on HCC 2998, with HOP-62 and with KM12 was > 100 µM (inactive) in each case. For the same compound, the GI50 with MDA-MB-231, in the assay on NCI-H23, in the assay with NCI-H460, in the assay on NCI-H522, in the assay on OVCAR-4 and in the assay with RPMI-8226 was > 100 µM (inactive) throughout. Besides, the GI50 in the assay with SF-268, with SK-MEL-2, in the assay with SK-MEL-5, in the assay on SN12C, in the assay on SW-620 and in the assay with T47D was > 100 µM (inactive) throughout. Besides, the GI50 with TK-10 and in the assay with UACC-62 was > 100 µM (inactive) in each case.

(Values after ChEMBL document CHEMBL1201862, “PubChem BioAssay data set” (2004).)
